Values after ≈ are worked out from the molar mass of the structure shown.

Here are results for four compounds from ChEMBL document CHEMBL4373693, “Virtual Screening Approach and Investigation of Structure-Activity Relationships To Discover Novel Bacterial Topoisomerase Inhibitors Targeting Gram-Positive and Gram-Negative Pathogens” (J Med Chem, 2019).

For experiment [1], the target named is DNA gyrase subunit A (Escherichia coli K-12, UniProt P0AES4). Nature of the experiment: Inhibition of Escherichia coli ATCC 25922 DNA gyrase A assessed as reduction in enzyme-mediated supercoiling of relaxed pBR322 DNA by ethidium bromide staining based gel electrophoresis method.
The test system of experiment [2] is Staphylococcus aureus. Nature of the experiment: Antibacterial activity against Staphylococcus aureus BAA-1720 after 16 to 24 hrs by broth microdilution method. In kind it is functional. (In general: In broth dilution the organism is exposed to a series of concentrations in liquid medium.)
The target of experiment [3] is T1, DNA topoisomerase 4 subunit A (Escherichia coli K-12, UniProt P0AFI2).
T1 sequence (P0AFI2 whole entry): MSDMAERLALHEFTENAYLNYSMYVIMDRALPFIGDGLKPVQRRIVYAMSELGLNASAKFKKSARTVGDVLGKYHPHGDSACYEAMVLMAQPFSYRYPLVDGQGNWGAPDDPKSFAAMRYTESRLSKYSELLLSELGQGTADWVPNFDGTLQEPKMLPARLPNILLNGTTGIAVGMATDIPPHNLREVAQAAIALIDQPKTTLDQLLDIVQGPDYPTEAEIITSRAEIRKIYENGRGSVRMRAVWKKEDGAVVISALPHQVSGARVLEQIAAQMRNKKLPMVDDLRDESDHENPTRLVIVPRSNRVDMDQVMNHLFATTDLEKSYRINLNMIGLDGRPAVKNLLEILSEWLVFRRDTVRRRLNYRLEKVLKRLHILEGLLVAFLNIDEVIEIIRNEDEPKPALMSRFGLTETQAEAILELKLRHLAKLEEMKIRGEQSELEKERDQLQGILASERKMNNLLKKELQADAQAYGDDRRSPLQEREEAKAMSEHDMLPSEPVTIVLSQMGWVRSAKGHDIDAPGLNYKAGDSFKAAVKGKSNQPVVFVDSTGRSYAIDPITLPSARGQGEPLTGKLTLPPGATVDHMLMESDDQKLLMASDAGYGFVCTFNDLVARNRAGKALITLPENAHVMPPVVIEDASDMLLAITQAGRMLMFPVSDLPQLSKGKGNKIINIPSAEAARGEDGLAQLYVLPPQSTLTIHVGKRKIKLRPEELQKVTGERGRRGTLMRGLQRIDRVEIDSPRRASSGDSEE
Nature of the experiment: Inhibition of Escherichia coli ATCC 25922 DNA topoisomerase 4 subunit ParC assessed as reduction in decatenation of kinetoplast DNA incubated for 30 mins by ethidium bromide staining based gel electrophoresis method.

In experiment [4] the target is DNA topoisomerase 4 subunit A (Staphylococcus aureus, UniProt P0C1U9). In words: Inhibition of Staphylococcus aureus ATCC 29213 DNA topoisomerase 4 subunit ParC assessed as reduction in decatenation of kinetoplast DNA incubated for 30 mins by ethidium bromide staining based gel electrophoresis method.
For the next experiment, the system named is Pseudomonas aeruginosa. In words: Antibacterial activity against Pseudomonas aeruginosa ATCC 27853 after 16 to 24 hrs by CLSI method. The format is functional.
A further experiment relates to Escherichia coli. In words: Antibacterial activity against Escherichia coli ATCC 25922 after 16 to 24 hrs by broth microdilution method. The format is functional.
Experiment [5] deals with Staphylococcus aureus. In words: Antibacterial activity against Staphylococcus aureus ATCC 29213 after 16 to 24 hrs by broth microdilution method. In kind it is functional.
Experiment [6] concerns the target DNA gyrase subunit A (Staphylococcus aureus, UniProt P20831). In words: Inhibition of Staphylococcus aureus ATCC 29213 DNA gyrase A assessed as reduction in enzyme-mediated supercoiling of relaxed pBR322 DNA by ethidium bromide staining based gel electrophoresis method.

Sequence of DNA topoisomerase 4 subunit A (Staphylococcus aureus, UniProt P0C1U9) (P0C1U9 whole entry): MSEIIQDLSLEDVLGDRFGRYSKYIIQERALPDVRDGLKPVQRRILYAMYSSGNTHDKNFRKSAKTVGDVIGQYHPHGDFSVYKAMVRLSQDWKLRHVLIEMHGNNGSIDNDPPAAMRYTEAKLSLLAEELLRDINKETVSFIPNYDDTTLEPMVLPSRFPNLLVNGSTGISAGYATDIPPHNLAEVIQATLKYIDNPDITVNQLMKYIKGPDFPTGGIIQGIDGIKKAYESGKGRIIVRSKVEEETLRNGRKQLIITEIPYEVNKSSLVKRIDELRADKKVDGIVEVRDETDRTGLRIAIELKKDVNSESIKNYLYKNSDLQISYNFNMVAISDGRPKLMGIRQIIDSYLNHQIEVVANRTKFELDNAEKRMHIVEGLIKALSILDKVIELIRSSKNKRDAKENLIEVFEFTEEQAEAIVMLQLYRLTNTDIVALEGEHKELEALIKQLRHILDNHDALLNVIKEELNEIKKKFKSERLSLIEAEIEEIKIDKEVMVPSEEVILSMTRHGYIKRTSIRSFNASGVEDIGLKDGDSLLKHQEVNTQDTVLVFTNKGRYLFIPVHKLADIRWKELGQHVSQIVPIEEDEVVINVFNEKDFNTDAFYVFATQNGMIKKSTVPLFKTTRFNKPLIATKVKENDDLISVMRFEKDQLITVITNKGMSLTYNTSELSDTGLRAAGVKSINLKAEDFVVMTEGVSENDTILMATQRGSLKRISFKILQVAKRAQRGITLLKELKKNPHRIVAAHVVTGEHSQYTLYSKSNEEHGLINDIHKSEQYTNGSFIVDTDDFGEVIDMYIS
Sequence of DNA gyrase subunit A (Staphylococcus aureus, UniProt P20831) (P20831 whole entry): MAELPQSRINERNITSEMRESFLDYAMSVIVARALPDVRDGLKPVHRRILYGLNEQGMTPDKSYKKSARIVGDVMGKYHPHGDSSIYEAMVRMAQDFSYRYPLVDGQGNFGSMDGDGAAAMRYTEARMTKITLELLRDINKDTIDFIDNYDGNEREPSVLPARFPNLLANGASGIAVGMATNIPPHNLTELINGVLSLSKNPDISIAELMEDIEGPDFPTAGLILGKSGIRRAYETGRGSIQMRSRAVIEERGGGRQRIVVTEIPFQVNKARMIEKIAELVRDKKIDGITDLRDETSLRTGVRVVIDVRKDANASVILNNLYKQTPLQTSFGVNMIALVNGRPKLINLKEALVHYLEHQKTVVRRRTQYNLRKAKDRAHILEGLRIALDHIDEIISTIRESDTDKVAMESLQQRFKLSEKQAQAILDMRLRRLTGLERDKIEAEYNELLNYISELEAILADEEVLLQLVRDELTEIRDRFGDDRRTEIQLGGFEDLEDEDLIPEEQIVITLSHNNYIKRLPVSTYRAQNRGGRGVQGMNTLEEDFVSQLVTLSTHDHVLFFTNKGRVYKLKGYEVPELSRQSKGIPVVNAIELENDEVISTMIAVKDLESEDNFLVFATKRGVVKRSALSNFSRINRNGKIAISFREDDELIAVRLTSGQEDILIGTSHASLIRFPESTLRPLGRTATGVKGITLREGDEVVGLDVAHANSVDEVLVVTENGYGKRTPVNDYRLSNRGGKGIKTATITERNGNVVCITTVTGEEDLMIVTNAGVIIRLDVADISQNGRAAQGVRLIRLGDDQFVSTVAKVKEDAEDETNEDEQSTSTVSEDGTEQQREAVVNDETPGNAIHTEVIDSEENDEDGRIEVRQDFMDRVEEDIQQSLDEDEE
Sequence of DNA gyrase subunit A (Escherichia coli K-12, UniProt P0AES4) (P0AES4 whole entry): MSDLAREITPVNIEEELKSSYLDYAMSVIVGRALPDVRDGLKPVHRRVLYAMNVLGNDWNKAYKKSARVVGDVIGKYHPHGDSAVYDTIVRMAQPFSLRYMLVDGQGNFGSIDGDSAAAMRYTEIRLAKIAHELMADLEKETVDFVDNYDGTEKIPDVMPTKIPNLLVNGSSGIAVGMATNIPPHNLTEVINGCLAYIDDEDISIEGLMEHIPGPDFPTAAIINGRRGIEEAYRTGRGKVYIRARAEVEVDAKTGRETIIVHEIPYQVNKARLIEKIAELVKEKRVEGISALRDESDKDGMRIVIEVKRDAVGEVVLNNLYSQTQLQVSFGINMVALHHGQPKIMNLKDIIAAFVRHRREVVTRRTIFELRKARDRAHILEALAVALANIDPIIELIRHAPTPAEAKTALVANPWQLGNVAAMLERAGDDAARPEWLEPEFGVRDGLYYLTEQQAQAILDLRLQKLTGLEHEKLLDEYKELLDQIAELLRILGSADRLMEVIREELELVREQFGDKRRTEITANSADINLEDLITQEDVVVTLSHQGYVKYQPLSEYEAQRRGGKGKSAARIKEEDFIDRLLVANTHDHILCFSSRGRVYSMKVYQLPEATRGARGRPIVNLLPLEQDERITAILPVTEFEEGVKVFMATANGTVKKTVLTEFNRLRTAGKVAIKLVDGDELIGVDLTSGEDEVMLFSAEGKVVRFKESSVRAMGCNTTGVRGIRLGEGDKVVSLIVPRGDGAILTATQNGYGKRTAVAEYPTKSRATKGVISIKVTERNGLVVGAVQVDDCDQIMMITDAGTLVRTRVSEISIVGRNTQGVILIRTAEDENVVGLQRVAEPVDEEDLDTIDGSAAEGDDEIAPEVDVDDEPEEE

Consider `O=c1cc(NCCCN2CCN(c3nccc4ccccc34)CC2)c2ccccc2o1`, for which the IC50 on DNA gyrase subunit A [1] turned out to be 500 nM; in experiment [3] it was 10000 nM; in experiment [4], 90000 nM; on DNA gyrase subunit A [6], 14000 nM. Further, the minimal inhibitory concentration (MIC) in the experiment with Staphylococcus aureus [2] is greater than 32 µg/mL; against Pseudomonas aeruginosa, greater than 32 µg/mL; in the experiment with Escherichia coli, 4 µg/mL (≈ 9.65 µM); against Staphylococcus aureus [5] it was greater than 32 µg/mL.
As to `N#Cc1ccc2ccnc(N3CCN(CCCNc4cc(=O)oc5ccccc45)CC3)c2c1`, the concentration for half-maximal inhibition (IC50) was 2300 nM at DNA gyrase subunit A [1], 1700 nM in experiment [3], 5100 nM in experiment [4] and 6800 nM on DNA gyrase subunit A [6]. In addition, the minimum inhibitory concentration (MIC) is 4 µg/mL (≈ 9.1 µM) in the experiment on Staphylococcus aureus [2], greater than 8 µg/mL with Pseudomonas aeruginosa, 2 µg/mL (≈ 4.55 µM) against Escherichia coli and 8 µg/mL (≈ 18.2 µM) in the experiment with Staphylococcus aureus [5].
`O=c1cc(NCCCN2CCN(c3nccc4ccc(Cl)cc34)CC2)c2ccccc2o1`: the IC50 at DNA gyrase subunit A [1] was determined as 900 nM; in experiment [3], 2400 nM; in experiment [4], 5600 nM; at DNA gyrase subunit A [6] it was 4500 nM. Also, the MIC was found to be 2 µg/mL (≈ 4.45 µM) with Staphylococcus aureus [2], 8 µg/mL (≈ 17.8 µM) in the experiment with Pseudomonas aeruginosa, 2 µg/mL (≈ 4.45 µM) in the experiment with Escherichia coli and 4 µg/mL (≈ 8.91 µM) in the experiment on Staphylococcus aureus [5].
Consider `O=c1cc(CC(O)CCN2CCN(c3nccc4ccc(F)cc34)CC2)c2ccccc2o1` (racemic), for which the IC50 was found to be 2800 nM at DNA gyrase subunit A [1], 2500 nM in experiment [3], 1700 nM in experiment [4] and 800 nM on DNA gyrase subunit A [6]. Also, the minimum inhibitory concentration (MIC) against Staphylococcus aureus [2] is 4 µg/mL (≈ 8.94 µM); against Pseudomonas aeruginosa, greater than 8 µg/mL; in the experiment on Escherichia coli, 8 µg/mL (≈ 17.9 µM); against Staphylococcus aureus [5] it was 1 µg/mL (≈ 2.23 µM).

The term IC50 denotes the concentration that gives 50% inhibition. The term MIC denotes the lowest concentration that inhibits growth of the organism. Lower therefore signals inhibition by little substance.
